The record followed here is BindingDB's records for PubMed 11259544 (Florida State University, 2001).

As a reminder, the pKi is −log10 of the Ki, conventionally taken in molar units. A low value points to a large Ki.

pKi: −log10 of the molar value.

The experiment deals with Cannabinoid receptor 1 (Taeniopygia guttata, UniProt P56971).
Sequence of Cannabinoid receptor 1 (P56971 whole entry): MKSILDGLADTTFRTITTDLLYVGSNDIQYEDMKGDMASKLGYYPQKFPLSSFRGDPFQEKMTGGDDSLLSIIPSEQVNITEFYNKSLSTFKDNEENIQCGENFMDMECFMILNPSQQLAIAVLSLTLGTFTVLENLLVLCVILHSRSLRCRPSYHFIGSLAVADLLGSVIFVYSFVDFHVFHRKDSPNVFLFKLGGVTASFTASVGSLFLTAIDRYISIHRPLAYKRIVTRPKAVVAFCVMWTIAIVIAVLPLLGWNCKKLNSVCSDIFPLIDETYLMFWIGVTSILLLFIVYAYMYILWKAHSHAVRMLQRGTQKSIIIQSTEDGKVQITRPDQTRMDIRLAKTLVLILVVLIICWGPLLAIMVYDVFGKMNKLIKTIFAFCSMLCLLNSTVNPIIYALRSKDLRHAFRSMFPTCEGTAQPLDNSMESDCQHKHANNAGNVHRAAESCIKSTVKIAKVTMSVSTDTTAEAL
The compound `CCCCC/C=C\C/C=C\C/C=C\C/C=C\CCCC(=O)NC(C)CO` (configuration not stated) gave a pKi of 6.78.
`CCCCC/C=C\C/C=C\C/C=C\C/C=C\CCCCCC(=O)NCCO` gave a pKi of 5.55.
To `CCCCCCC(C)(C)c1cc(O)c2c(c1)OC(C)(C)[C@@H]1CC=C(CO)CC21` (stereo partly drawn) [(R)-3-(1,1-Dimethyl-heptyl)-9-hydroxymethyl-6,6-dimethyl-6a,7,10,10a-tetrahydro-6H-benzo[c]chromen-1-ol] belongs 8.63.
The figure for `CCCCCCC(C)(C)c1ccc([C@H]2C[C@@H](O)CC[C@@H]2CCCO)c(O)c1` [CP-56667 [(+)-AC],XV] is 8.23; for `CC(=O)Oc1cc(OC(C)CCCc2ccccc2)cc2c1C1CC(O)CCC1C(C)N2` (configuration not stated) [NSC_107822] it is 8.08; for `Cc1c(C(=O)NN2CCCCC2)nn(-c2ccc(Cl)cc2Cl)c1-c1ccc(Cl)cc1` [SR141716] it is 7.05.
On to `Cc1c(C(=O)c2cccc3ccccc23)c2cccc3c2n1[C@H](CN1CCOCC1)CO3` [WIN55212-2], for which the pKi was 7.20.
